{
  "source": "patent US20250207109A1",
  "about": "“ENGINEERED SPLIT DHFR-BASED METHODS AND SYSTEMS FOR SELECTING CELLS THAT HAVE STABLY ACQUIRED A HETEROLOGOUS POLYNUCLEOTIDE” (DNA Twopointo, Inc., priority 2022, published 2025)",
  "molecules": {"B1": {"name": "P7A/P8A coiled coil fusion proteins: P7A / P8A Coiled Coil-Linker-Mouse DHFR (1-105; L22F/F31S) and (106-186) fusion pair (protein)", "chain 1": "MGEIAALEAKNAALKAEIAALEAKNAALKAGCGGGGSGGGGSVRPLNCIVAVSQNMGIGKNGDFPWPPLRNESKYFQRMTTTSSVEGKQNLVIMGRKTWFSIPEKNRPLKDRINIVLSRELKEPPRGAHFLAKSLDDALRLIEQPEL", "chain 2": "MKIAALKAENAALEAKIAALKAENAALEAGGCGGGGSGGGGSASKVDMVWIVGGSSVYQEAMNQPGHLRLFVTRIMQEFESDTFFPEIDLGKYKLLPEYPGVLSEVQEEKGIKYKFEVYEKKD"}},
  "assay_type_in_all_cases": "cell-based, human",
  "key": {"[1]": {"test_system": "FKBP12.6tr_F36V", "assay": "Split DHFR complementation assay to show rimiducid-dependent dimerization", "details": "cells expressing FKBP12.6tr_F36V-DHFR fragment fusions; rimiducid 100 nM, methotrexate 0.2 μM", "source_text": "The Split DHFR concept was employed as the basis of a test of whether a fragment of the human protein FKBP12.6 could dimerize in the presence of rimiducid. For this purpose, an F36V substitution was introduced into FKBP12.6 in an effort to render it sensitive to rimiducid-dependent dimerization as is the case for the paralogous protein FKBP12. See Clackson T, Yang W, Rozamus L W, Hatada M, Amara J F, Rollins C T, Stevenson L F, Magari S R, Wood S A, Courage N L, Lu X, Cerasoli F, Gilman M, Holt D A. Redesigning an FKBP-ligand interface to generate chemical dimerizers with novel specificity. Proc Natl Acad Sci USA. 1998; 95 (18): 10437-42. doi: 10.1073/pnas.95.18.10437.\nThe truncated version of FKBP12.6 carrying the F36V substitution (SEQ ID NO: 192) was fused at its carboxy terminus to the two fragments of murine DHFR as in Example 1, with one of the fragments bearing the L22F and F31S substitutions to confer methotrexate resistance (SEQ ID NOs: 190 and 191). […]\n(§1) At left is the result for cells expressing the DHFR fragments fused to the P7A/P8A heterodimerizing coiled-coil peptides. […] Untransfected cells were analyzed under identical conditions as a control (at right)."}, "[2]": {"test_system": "Jurkat T lymphoma cells", "assay": "Methotrexate selection of Jurkat cells co-transfected with pairs of transposons encoding mouse split DHFR fragments, flow cytometry for mTagBFP2/plobRFP", "details": "0.1 μM methotrexate; compared with coiled coil pairs", "source_text": "Transgenes encoding the six DHFR fusion proteins regulated by the EF1-alpha promoter were each placed in a Leap-In transposon vector that also included a transgene encoding a fluorescent protein. For the transposons expressing the amino-terminal piece of DHFR, the fluorescent protein was mTagBFP2. For the transposons expressing the carboxy-terminal piece, the fluorescent protein was plobRFP. These fluorescent protein transgenes were included so that cells carrying the two kinds of transposons could be readily identified by flow cytometry or fluorescent microscopy.\nJurkat T lymphoma cells were transfected with the appropriate pairs of transposons (i.e., transposons encoding both an amino- and carboxy-terminal piece of DHFR fused to leucine zipper or coiled coil sequences that should associate stably with one another). The ThermoFisher Neon® electroporator was used with 100 μl tips and three pulses of 1350V, each pulse 10 mS in length. […]\nSuccessful methotrexate selection of cells carrying both transfected transposons was evident by the fact that the majority of cells expressed both mTagBFP2 and plobRFP. The cells were analyzed at ten days or six weeks after transfection as indicated."}, "[3]": {"test_system": "Jurkat cells", "assay": "Split DHFR complementation assay, methotrexate selection of Jurkat cells expressing DHFR fragment fusion proteins", "details": "0.2 μM methotrexate, two weeks; rimiducid 100 nM for FKBP12.6tr pair", "source_text": "The truncated version of FKBP12.6 carrying the F36V substitution (SEQ ID NO: 192) was fused at its carboxy terminus to the two fragments of murine DHFR as in Example 1, with one of the fragments bearing the L22F and F31S substitutions to confer methotrexate resistance (SEQ ID NOs: 190 and 191).\nAs a control, the P7A/P8A pair of DHFR fragment fusion proteins (involving SEQ ID Nos: 188 and 189) was also used. Whereas the P7A/P8A pair of constructs co-expressed the DHFR fragments with a red fluorescent protein (RFP; plobRFP) or a blue fluorescent protein (BFP; mTagBFP2), both FKBP12.6 tr transposons carried a BFP transgene.\nJurkat cells were co-transfected by electroporation (ThermoFisher Neon; 100 μl tips; 1350V, three 10 ms pulses) with pairs of plasmids carrying transposons encoding the two DHFR fragments (7.5 μg of each) together with mRNA encoding the Leap-In Transposase® enzyme (2 μg). The cells were plated in RPMI-1640 medium supplemented with fetal bovine serum (10% vol/vol) and methotrexate (0.2 μM). Rimiducid at 100 nM was added to the medium of cells that had been transfected with the FKBP12.6tr pair of plasmids.\nas §1"}},
  "data": [
    {"molecule": "CC[C@H](C(=O)N1CCCC[C@H]1C(=O)O[C@H](CCc1ccc(OC)c(OC)c1)c1cccc(OCC(=O)NCCNC(=O)COc2cccc([C@@H](CCc3ccc(OC)c(OC)c3)OC(=O)[C@@H]3CCCCN3C(=O)[C@@H](CC)c3cc(OC)c(OC)c(OC)c3)c2)c1)c1cc(OC)c(OC)c(OC)c1", "note": "[rimiducid]", "values": [
      {"measurement": "rimiducid dependence of survival in methotrexate", "setting": "[1]", "result": "the cells failed to thrive when the drug was removed"}
    ]},
    {"molecule": "leucine zipper pair of constructs: GCN4 Leucine Zipper-Linker-Mouse DHFR (1-105; L22F/F31S) and (106-186) fusion pair", "values": [
      {"measurement": "average level of red and blue fluorescence of selected cells", "setting": "[2]", "result": "higher average level of both red and blue fluorescence than the pairs involving the coiled coil sequences"}
    ]},
    {"molecule": "B1", "values": [
      {"measurement": "methotrexate resistance / survival of transfected cells", "setting": "[3]", "result": "conferred methotrexate resistance on the transfected cells"}
    ]}
  ]
}
